According to patent US20250381180A1, “METHODS OF TREATING OR PREVENTING OVERACTIVE BLADDER SYNDROME” (Purdue Pharma L.P., priority 2022, published 2025):
“Also recorded” adds a separate entry of the source.

What was measured:
conscious SCI rats [1] = details: Beauval et al., 2015; cited from earlier work
[2] = Urine concentrations in humans after a single oral dose; format: in vivo, human; details: see Example 2
conscious SCI rats [3] = experiment: Cystometric parameters in conscious spinal cord injury (SCI) rats; format: in vivo, rat; details: i.g., Cpd (IA) 30 mg/kg, mirabegron 10 mg/kg
Protocol: Test substance effects were compared to those of the reference substance, the β3-adrenoceptor agonist mirabegron, marketed for overactive bladder.
• At W-5, spinal cord injury was performed at T8 level as described below. • Over W-5, rats were treated daily with gentamicin. • Over W-5 and W-4, bladder was emptied manually once a day. • From W-5 to W0, animals were weighed once per week. • At D-2 (W0), implantation of catheters was performed under isoflurane anaesthesia as described below. • At D0 (W0), cystometry was performed
Rats were anesthetized with isoflurane (3%). Body temperature was constantly maintained at 37° C. throughout the surgery by placing animals on a thermo-regulated hot plate. A laminectomy was performed and the spinal cord was sectioned with microscissors at T8 level. Care was taken to assure that the section was complete by verifying that a slight retraction of the two segments occurred. Then the muscle was sutured and the skin fixed with staples. The scar was cleaned by Vetedine. For the Sham group, the same surgery was performed without section of the spinal cord.
The urinary bladder was squeezed once a day for 14 days with a gentle massage of the abdomen until restoration of the micturition reflex. In addition, they were administered intramuscularly daily for one week with gentamicin (2 mg/mL, 0.2 ml/rat). Animals were euthanized if they reached humane endpoints: weight loss of greater than 20% of their body weight and/or abnormal behavioral changes indicating presence of pain and distress (prostration, self-mutilation, aggressiveness).
Rats were anesthetized with isoflurane (3%). Body temperature was constantly maintained at 37° C. throughout the surgery by placing animals on a thermo-regulated hot plate. A polyethylene catheter (0.58 and 0.96 mm of inner and outer diameters, respectively) was implanted in the bladder through the dome for intravesical pressure recording. Another catheter (0.58 and 0.96 mm of inner and outer diameters, respectively) was implanted in the stomach for intra-gastric administration. Catheters were exteriorized at the scapular level. After surgery, each rat was housed individually up to the end of the protocol with free access to food and water.
Animals were held under partial restraint in a restraining device. Saline was infused into the bladder at a constant flow rate of 2 or 6 mL/h for sham or SCI rats, respectively. After at least 45 min (3 complete micturition cycles corresponding to basal values), test substances were administered by intra-gastric route. Then, intravesical pressure was recorded for 90 min.
The following cystometric parameters were analyzed (see FIG. 10): • Amplitude of micturition (AM, mmHg). • Threshold pressure (ThP, mmHg). • Intercontraction interval (ICI, sec): time between basal pressure and ThP. ICI was not presented due to different infusion rate in sham and SCI rats. ICI was only analyzed to calculate the bladder capacity. • Bladder capacity (BC, mL) BC=ICI×infusion rate. • Amplitude of non voiding contractions (NVC, mmHg) • Frequency of NVC (number per min).
For each cystometric parameter and for each time period, the comparisons were performed as described below: • Basal values of each cystometric parameter of Sham/Vehicle and SCI/Vehicle groups were compared using unpaired student t test • Basal values of each cystometric parameter of all SCI groups were compared using one-way ANOVA or Kruskal-Wallis test • The 3 interval periods of 30 min post treatment of each cystometric parameter within the same group were compared to corresponding basal values using one-way ANOVA with repeated measures or Friedman test followed by Dunnett's or Dunn's post-test, respectively. • The 3 interval periods of 30 min post treatment of each cystometric parameter were compared between all SCI groups using one-way ANOVA or Kruskal Wallis test followed by Holm-Sidak's or Dunn's post-test versus Vehicle, respectively.

conscious BOO rats [4] = experiment: Cystometric parameters in conscious bladder outlet obstruction (BOO) rats; format: in vivo, rat; details: i.g.; for BC, effect versus basal: Cpd (IA) 30 mg/kg, mirabegron 10 mg/kg
Protocol: Test substance effects were compared to those of the reference substance, mirabegron, marketed for overactive bladder.
• At W-6, a partial ligature of the urethra was performed. • At W-6, during 3 consecutive days, rats were treated daily with gentamycin and Ketofen® The bladder was emptied manually once a day. • From W-6 to W-1 animals were monitored and weighed once per week. • At W0 (D-2), catheters were implanted under isoflurane anesthesia. • At D0, cystometry was performed.
Appropriate amount of Cpd (IA) was weighed and dissolved in vehicle to obtain the dosing solution with the target concentration of 3 mg/mL (as free base). […]
[…] Mirabegron (from Kemprotec) was prepared fresh on the day of administration at a final concentration of 2 mg/mL (free base form). Appropriate mass of mirabegron was weighed and dissolved in vehicle (0.5% MC) at room temperature.

conscious BOO rats [5] = details: Gillespy et al., 2012; cited from earlier work
[6] = system: rhythmic bladder contractions (RBC) in anesthetized female rats; experiment: Isovolumetric model: rhythmic bladder contractions (RBC), cystometry; format: in vivo, rat; details: for RBC amplitude, basal / RBC frequency, basal: basal period −30/0 min before i.v. administration, group mean
Text: In rats, under isovolumetric condition, bladder distension induced rhythmic bladder contractions (RBC) (Aizawa et al, (2015) Effects of L-arginine, mirabegron, and oxybutynin on the primary bladder afferent nerve activities synchronized with reflexic, rhythmic bladder contractions in the rat. Neurourology & Urodynamics 34:368-374). This isovolumetric model allows the evaluation of compound on RBC. It is a closed system where the bladder is slowly infused through a urethral catheter with saline until the occurrence of spontaneous rhythmic bladder contractions.
Test substance effects were compared to that of the reference substance, tolterodine, an […], marketed for overactive bladder in humans.
Protocol: • Animals were anesthetized with urethane (i.p.). • Ureters were ligated and sectioned close to the kidneys. • Intravesical catheter was inserted into the bladder though the urinary meatus. • Urinary meatus was closed. • A catheter was inserted into the jugular vein for compound administration. • Bladder was filled with saline until the occurrence of RBC. • After 30 min basal period, compounds were administered as described below. • The effect of the test substances was followed by 1-hour post administration.
Rats were anesthetized with an intraperitoneal administration of urethane (1 g/kg). The ureters were ligated and sectioned close to the kidneys. A catheter (0.30 and 0.70 mm of inner and outer diameters, respectively) was inserted through the urinary meatus into the bladder before urethral ligature. Another catheter (0.58 and 0.96 mm of inner and outer diameters, respectively) was inserted into the jugular vein for intravenous (i.v.) administration.
For all group, animals were treated by i.v. route (1 mL/kg) (slow bolus) after the basal period.
The vesical catheter was connected via a T-tube to a strain gauge (to measure intra-vesical pressure) and to a syringe. Isovolumetric bladder contractions were induced by stepwise injections of physiological saline at room temperature (100 μL every 5 min) until stable RBC occurred. Vesical pressure was continuously recorded. After a 30 min control period (basal values), substances or vehicle were i.v. administered. The effects of substances were followed during 60 min after administration. At the end of the experiments, animals were sacrificed by cervical dislocation.
The following parameters were analyzed: • Amplitude of RBC (mmHg) • Frequency of RBC (number/30 min) • Time of inhibition (sec)
The % variation from the basal values were calculated for RBC frequency and amplitude.
Statistical analysis and graphs were performed using GraphPad Prism® (GraphPad Software Inc., La Jolla, CA, USA). A p value <0.05 was accepted for statistical significance.

[7] = 0/60 min after i.v., Cpd (IA) 3 mg/kg (n=8), tolterodine 1 mg/kg, mean
[8] = 0/60 min after i.v., Cpd (IA) 3 mg/kg, tolterodine 1 mg/kg, mean
[9] = 0/60 min after i.v., Cpd (IA) 3 mg/kg, tolterodine 1 mg/kg, mean, listed as Tolterodine
[10] = i.v., Cpd (IA) 3 mg/kg, tolterodine 1 mg/kg, vs basal
[11] = i.v., Cpd (IA) 3 mg/kg, tolterodine 1 mg/kg, vs vehicle

C[C@H](Cc1ccc2c(c1)OC(C(=O)[O-])(C(=O)[O-])O2)NC[C@H](O)c1cccc(Cl)c1.[Na+].[Na+] [CL-316,243]
bladder capacity (conscious SCI rats [1]): significantly increase
frequency of NVC (conscious SCI rats [1]): reduce

O=C(O)c1nc2ccccc2n(C2CC3CCCC(C2)N3C2CC3CCCC(C3)C2)c1=O (stereo not shown) [compound of formula (I)]
route of excretion [2]: primarily excreted from the urine largely unchanged

Nc1nc(CC(=O)Nc2ccc(CCNC[C@H](O)c3ccccc3)cc2)cs1 [mirabegron, reference compound]
AM (amplitude of micturition), effect versus basal (conscious SCI rats [3]): did not significantly modify
AM (mmHg and % variation), effect versus vehicle (conscious SCI rats [3]): not significantly modified
BC expressed in % variation from basal, effect versus vehicle (conscious SCI rats [3]): not significantly modified
BC expressed in mL, effect versus vehicle (conscious SCI rats [3]): no significant difference
NVC amplitude (mmHg or % variation), effect versus vehicle (conscious SCI rats [3]): not significantly modified
NVC amplitude, effect versus basal (conscious SCI rats [3]): did not significantly modified
NVC frequency (NVC/min and % variation), effect versus vehicle (conscious SCI rats [3]): not significantly modified
NVC frequency, effect versus basal (conscious SCI rats [3]): significantly decreased NVC frequency for the 30-60 and 60-90 min interval periods; also recorded: slightly but significantly decreased
ThP (mmHg and % variation), effect versus vehicle (conscious SCI rats [3]): not significantly modified
ThP (threshold pressure), effect versus basal (conscious SCI rats [3]): significantly decreased ThP for the 60-90 min post-administration interval period
BC (bladder capacity), effect versus basal (conscious SCI rats [3]; 30-min interval periods to 90 min): did not significantly modify
AM (mmHg or % variation), effect versus vehicle (conscious BOO rats [4]; 0-90 min entire period): not significantly modified
AM, effect versus basal (conscious BOO rats [4]; 0-90 min entire period): did not significantly modify
BC expressed in % variation from basal, effect versus vehicle (conscious BOO rats [4]; 0-90 min entire period): not significantly modified
BC expressed in mL, effect versus vehicle (conscious BOO rats [4]; 0-90 min entire period): no significant difference
NVC amplitude expressed in % variation from basal, effect versus vehicle (conscious BOO rats [4]; 0-90 min entire period): significantly reduced
NVC amplitude expressed in mmHg, effect versus vehicle (conscious BOO rats [4]; 0-90 min entire period): not significantly modified
NVC amplitude, effect versus basal (conscious BOO rats [4]; 0-90 min entire period): did not modify
NVC frequency (NVC/min or % variation), effect versus vehicle (conscious BOO rats [4]; 0-90 min entire period): not significantly modified
NVC frequency, effect versus basal (conscious BOO rats [4]; 0-90 min entire period): significantly decreased
ThP expressed in % variation from basal, effect versus vehicle (conscious BOO rats [4]; 0-90 min entire period): no significant effect
ThP expressed in mmHg, effect versus vehicle (conscious BOO rats [4]; 0-90 min entire period): not significantly modified
ThP, effect versus basal (conscious BOO rats [4]; 0-90 min entire period): did not modify
AM (mmHg or % variation), effect versus vehicle (conscious BOO rats [4]; 60-90 min interval period): no effect
AM, effect versus basal (conscious BOO rats [4]; 60-90 min interval period): did not significantly modify
BC expressed in % variation from basal, effect versus vehicle (conscious BOO rats [4]; 60-90 min interval period): no significant difference
BC expressed in mL, effect versus vehicle (conscious BOO rats [4]; 60-90 min interval period): no significant difference
NVC amplitude expressed in % variation from basal, effect versus vehicle (conscious BOO rats [4]; 60-90 min interval period): significantly decreased
NVC amplitude expressed in mmHg, effect versus vehicle (conscious BOO rats [4]; 60-90 min interval period): not significantly modified
NVC amplitude, effect versus basal (conscious BOO rats [4]; 60-90 min interval period): significantly reduced
NVC frequency (NVC/min or % variation), effect versus vehicle (conscious BOO rats [4]; 60-90 min interval period): unaffected
NVC frequency, effect versus basal (conscious BOO rats [4]; 60-90 min interval period): significantly decreased
ThP expressed in % variation from basal, effect versus vehicle (conscious BOO rats [4]; 60-90 min interval period): significantly decreased
ThP expressed in mmHg, effect versus vehicle (conscious BOO rats [4]; 60-90 min interval period): not significantly modified
ThP, effect versus basal (conscious BOO rats [4]; 60-90 min interval period): without effect
BC, effect versus basal (conscious BOO rats [4]; 0-90 min entire period): did not significantly modify
BC, effect versus basal (conscious BOO rats [4]; 60-90 min interval period): significantly increased
frequency of NVC (conscious BOO rats [5]): reduces

O=C(O)c1nc2ccccc2n([C@H]2C[C@H]3CCC[C@@H](C2)N3C2CC3CCCC(C3)C2)c1=O (single isomer, unassigned) [compound of formula (I′)]
route of excretion [2]: primarily excreted from the urine largely unchanged

Cc1ccc(O)c([C@H](CCN(C(C)C)C(C)C)c2ccccc2)c1 [tolterodine]
RBC amplitude, % variation from basal [6, 7]: −30.83±5.24%
RBC amplitude, treated period [6, 7]: 18.56 mmHg
RBC amplitude, % variation from basal ([6]; 0/60 min after i.v., Cpd (IA) 3 mg/kg (n=8), tolterodine 1 mg/kg, mean, listed as Tolterodine): −30.83%
RBC frequency, % variation from basal [6, 8]: −33.93±10.93%
RBC frequency, treated period [6, 8]: 15.30±2.72 nb of RBC/30 min
RBC frequency, % variation from basal [6, 9]: −33.93%
RBC frequency, treated period [6, 9]: 15.30 nb of RBC/30 min
Inhibition time ([6]; after i.v., Cpd (IA) 3 mg/kg, tolterodine 1 mg/kg, mean): 87.04 s
RBC amplitude, basal [6]: 27.22±2.03 mmHg
RBC frequency, basal [6]: 23.00±0.87 nb of RBC/30 min
RBC amplitude, basal ([6]; listed as Tolterodine): 27.22 mmHg
RBC frequency, basal ([6]; listed as Tolterodine): 23.00 nb of RBC/30 min
bladder afferent activity ([6]; conclusion of Example 1): no effect
bladder efferent activity ([6]; conclusion of Example 1): effectively inhibited
RBC amplitude, effect versus basal [6, 10]: significantly reduced
RBC frequency, effect versus basal [6, 10]: significantly decreased
RBC amplitude (% variation), effect versus vehicle [6, 11]: significantly reduced
RBC frequency (% variation), effect versus vehicle [6, 11]: did not significantly modify
time of inhibition, effect versus vehicle [6, 11]: no significant difference
